“Also recorded” adds a separate entry of the source.
How the values were obtained:
[1] = system: type-I IFN response in AMO1 and NCI-H929 MM cells; assay: Type-I IFN response in MM cells (RNA-seq, qRT-PCR, ELISA); assay type: cell-based, human; settings: BTZ 5 nM
Procedure: (§1) Total RNA from multiple myeloma cells was prepared with TRIzol™ (ThermoFisher Scientific) and RNA Clean and Concentrator™-5 kit (Zymo Research) following the product instructions. RNA integrity and quantity was assessed by NanoDrop Spectrophotometer (ThermoFisher Scientific). For analysis of mRNA expression, oligo-dT-primed cDNA was obtained using the High Capacity cDNA Reverse Transcription Kit (ThermoFisher Scientific), and used as template to quantify: human and murine IFNA1 (Hs03044218_g1, Mm03030145_gH), human and murine IFNB1 (Hs01077958_s1, Mm00439552_s1), human and murine CXCL9 (Hs00171065_ml, Mm00434946_ml), and human and murine GAPDH (Hs02786624_g1, Mm99999915_g1). Analysis was determined by RT-PCR using TaqMan®Fast Universal PCR Master Mix on a 7500 Fast Real-Time PCR System (ThermoFisher Scientific). Comparative RT-PCR was performed in triplicate. Relative expression was calculated using the comparative […] (Ct) method.
AMO1^WT and STING^KO cells were either untreated or treated with BTZ for 24 h. Supernatant was collected, and secretion of CXCL9 chemokines was analyzed by MIG (CXCL9) Human Instant ELISA™ Kit (#BMS285INST, ThermoFisher Scientific).
AMO1 WT and STING^KO were cultured for 16 h in the presence of absence of BTZ (5 nM). RNA was extracted as previously described and submitted to NovaSeq RNAseq analysis followed by VIPER NGS Analysis pipeline (Cornwell et al. (2018) BMC Bioinformatics; 19(1):135). Lists of DEGs were applied to the GSEA software. RNAseq data have been submitted to Gene Expression Omnibus (accession number: GSE171837).

[2] = system: AMO1, H929 and KMS11 MM cells; assay: Cell surface exposure of CALR (flow cytometry); assay type: cell-based, human
Procedure: (§2) Multiple myeloma (MM) cells were seeded in 12-well plates (2×10^5 per well), treated with BTZ for 16 h at indicated concentrations, and then stained with Alexa Fluor647® anti-calreticulin antibody (ab196159, Abcam) and 7-AAD. Analysis of fluorescence intensity on 7-AAD negative cells was assessed using BD LRSFortessa™ X-20 flow cytometer.
as §2, with “MM” for “Multiple myeloma (MM)”, “cells” for “cells was assessed”, “LRSFortessa” for “LRSFortessa™”

STC1 = assay: Western blot of STC1; assay type: cell-based
[3] = system: IFN response in 5TGM1 cells; assay: Type-I IFN response in MM cells (qRT-PCR); assay type: cell-based, murine; settings: 5TGM1 Sting^KO; BTZ 7.5 nM
Procedure: as §1

5TGM1 tumors = assay: RNA-seq analysis from mouse tumors; assay type: in vivo; settings: immunocompetent mice
Procedure: Tumors growing from both 5TGM1 WT or calrKO cells in C57BL/KaLwRijHsd mice treated with either PBS or BTZ (3/group) were harvested and used to extract RNA using the RNeasy® kit (Qiagen). After passing quality control, RNAseq was performed using Illumina NextSeq 500 Single-End 75 bp (SE75) and analyzed following the VIPER NGS analysis pipeline (Cornwell et al. (2018) BMC Bioinform. 19:135) comparing BTZ-treated mice vs PBS in each experimental setting. Listing of differentially expressed genes (DEGs) were applied to gene set enrichment analysis (GSEA) and Cytoscape (Bindea et al. (2009) Bioinform. 25:1091-1093; Bindea et al. (2013) Bioinform. 29:661-663) software to reveal biological pathways modulated by BTZ.
Tumors growing from both 5TGM1 WT or Calr^KO cells in C57BL/KaLwRijHsd mice treated with either PBS or BTZ (3/group) were harvested and used to extract RNA using the RNeasy kit (Qiagen). After passing quality control, RNAseq was performed using Illumina NextSeq 500 Single-End 75 bp (SE75) and analyzed following the VIPER NGS analysis pipeline (Cornwell et al. (2018) BMC Bioinformatics; 19(1):135), comparing BTZ-treated mice vs PBS in each experimental setting. […] Analysis of expression of human orthologs of these 90 genes in MM patients and correlation with patient clinical outcome was then analyzed as detailed below. […]

cGAS/STING pathway = assay: Western blot of cGAS/STING pathway; assay type: cell-based, human
Procedure: Cell lysis was performed in RIPA buffer (Boston Bio Products) supplemented with Halt protease and phosphatase inhibitor cocktail (ThermoFisher Scientific). SDS-PAGE was performed on NuPage Bis-Tris gels (ThermoFisher Scientific) using MOPS or MES running buffer. Gels were dry transferred onto 0.45 μm nitrocellulose membranes using the iBlot® Dry Blotting System (ThermoFisher Scientific). The following Abs were purchased from Cell Signaling Technology: EIF2A (#5324), p-EIF2A (#3398), ATF4 (#11815), CHOP (2895), CALR (#12238), cGAS (#15102), TBK1 (#3504), pTBK1 (#5483), pIRF3 (#29047), STING (#13647). GAPDH (#2118) and B-ACTIN (#4970) were used as loading controls.

SMILES: CC(C)C[C@H](NC(=O)[C@H](Cc1ccccc1)NC(=O)c1cnccn1)B(O)O [BTZ, bortezomib]
- type-I IFN response gene sets (RNA-seq) ([1]; AMO1, 16 h): positive enrichment of gene sets included in the type-I IFN response hallmark signature; also recorded: MM cells engage in a type I IFN response after treatment with BTZ
- CXCL9 transcript and secreted CXCL9 (ELISA) ([1]; AMO1 STING^KO): neither CXCL9 transcript or its secreted form were detected
- type-I IFN response (RNA-seq; IFNA1, IFNB1 qRT-PCR) ([1]; AMO1 STING^KO): did not activate transcription of genes in the IFNs response or increase the levels of IFNA1 and IFNB1 transcripts; also recorded: STING dependent
- IFNA1, IFNB1 and CXCL9 transcripts (qRT-PCR) ([1]; AMO1 and NCI-H929, 16 h): increased IFNA1, IFNB1 and CXCL9 transcripts
- CALR exposure on cell surface ([2]; AMO1, H929 WT, BTZ 1-10 nM, 16 h, viable (7-AAD negative) cells): triggers calreticulin (CALR; also referred to as CRT) exposure by cancer cells; also recorded: can induce hallmarks of ICD in human and murine MM cell lines; also recorded: dose-dependent increase of CTLR exposure
- CALR exposure on cell surface ([2]; AMO1 STING^KO, BTZ 5 nM, 16 h): did not alter CALR exposure process
- CALR exposure on cell surface ([2]; AMO1 and H929 GABARAP^KO clones): did not increase CRT exposure; also recorded: GABARAP^KO blocks CALR exposure upon BTZ
- CALR exposure on cell surface ([2]; AMO1 and H929 GABARAP^KO clones, listed as Bortezomib): did not induce CALR exposure in MM cells due to GABARAP deletion
- CALR exposure on cell surface ([2]; KMS11 cells (monoallelic deletion of GABARAP)): did not lead to an increase of CRT exposure
- STC1 protein levels (STC1; GABARAP^KO cells after BTZ): intracellular levels of STC1 are even higher after BTZ treatment
- STC1 protein levels (STC1; WT cells (5TGM1, AMO1) after BTZ): STC1 protein levels decrease in WT cells after BTZ treatment
- IFN response (Ifna1, Ifnb1 qRT-PCR) [3]: abrogation of IFN response after BTZ treatment
- transcriptional changes in tumors (RNA-seq) (5TGM1 tumors; 5TGM1 Calr^KO tumors): decreased this effect
- transcriptional changes in tumors (RNA-seq) (5TGM1 tumors; 5TGM1 WT tumors, two BTZ treatments 0.5 mg/kg): switched on a transcriptional program that is linked to the activation of an immune response; also recorded: consistent with activation of an immune response
- cGAS/STING pathway activation (cGAS, pTBK1, pIRF3) (cGAS/STING pathway; AMO1 (BTZ 5-10 nM, 16 h) and NCI-H929 WT): induces accumulation of the cytosolic DNA sensor cGAS; also recorded: induces IFN-I signaling and promotes T cell activation via cGAS/STING pathway
- cGAS level (cGAS/STING pathway; AMO1 STING^KO, BTZ 5 nM): significantly accumulated cGAS
- p-TBK1 downstream signaling (cGAS/STING pathway; AMO1 STING^KO, BTZ 5 nM): blocked activation of downstream signaling including p-TBK1

— patent US12109266B2, “Modulating gabarap to modulate immunogenic cell death” (Dana-Farber Cancer Institute, Inc., priority 2020, dated 2024)
